“Also recorded” adds a separate entry of the source.
Legend:
[1] = Thermostability: activity after standing in a water bath at 65° C.; assay type: physicochemical; settings: for thermostability in comparison with the original protein: 65° C. water bath, 0-30 min
Procedure: In order to confirm whether the PEG modification can increase the stability of kallikrein, the activity of the conjugates 1 and 3 and the original protein after standing for a period of time in a water bath at 65° C. was detected respectively in this example. The method specifically included the following steps. The conjugates 1 and 3 and the unmodified kallikrein dissolved in a PBS buffer at a protein concentration of 1 mg/mL were stood in a water bath at 65° C., sampled at 0 min, 2.5 min, 5 min, 7.5 min, 10 min, 20 min, 25 min, and 30 min respectively, and stored in freezer at […] for later use. After sampling, the biological activity was detected by employing the method (i.e., the method described in appendix IX F in Pharmacopoeia of People's Republic of China, Section 3, 2005 version).

[2] = test system: cerebral ischemia reperfusion model of middle cerebral artery obstruction (MCAO); experiment: Cerebral ischemia reperfusion model of middle cerebral artery obstruction (MCAO); assay type: in vivo; settings: SD rats, 3 μg/kg once via vena caudalis; for Cerebral infarction area (%) / Score of neurologic deficit symptom: 24 h after reperfusion; for Cerebral infarction area (%): TTC staining; for Score of neurologic deficit symptom: improved Bederson 5-point system
Text: A cerebral ischemia reperfusion model of middle cerebral artery obstruction (MCAO) was established by thread embolizing the internal carotid artery of SD rats (purchased from Shanghai Sippr bk Laboratory Animal Co. LTD.) A positive control 1 group (urinary kallikrein, Guangdong Tianpu Biochemical Pharmaceutical Co., LTD.), a positive control 2 group (tPA, Shanghai Boehringer Ingelheim Pharmaceuticals Co., LTD), a model control group (PBS), a sham group, a kallikrein group (from Changzhou Qianhong Biochemical Pharmaceutical Co., LTD.), a conjugate 1 group, a conjugate 2 group, a conjugate 3 group, and a conjugate 4 group were arranged respectively. Administration by injection through vena caudalis was performed once at 3 μg/kg (calculated according to the protein amount) immediately after the cerebral ischemia reperfusion. Neurologic deficit symptoms were observed 24 h after the reperfusion, and the cerebral infarction area was determined. In the model group, an equal volume of PBS was injected through vena caudalis into the rat. In the sham group, only blood vessels were separated, no embolizing thread was inserted, and an equal volume of PBS was injected through vena caudalis into the rats. Neurologic deficit symptoms were evaluated employing an improved Bederson 5-point system method. Neurologic deficit symptoms of the rats after brain trauma were evaluated by a single-blind method, i.e., the animals were marked according to groups by designers of the experiment, and scores of the neurologic deficit symptoms were given by experimenters blind to the grouping situation. The cerebral infarction area was calculated employing the following method. Cerebrums of the SD rats were stained with TTC (2,3,5-triphenyltetrazolium chloride) and then the photographs were subjected to statistics using an image analysis software, and the percentage of cerebral infarction area was calculated according to the following formula: % cerebral infarction area=100×(total ischemic area/total area on the right side)

[3] = test system: db/db mice as animal models for diabetic nephropathy; experiment: Diabetic nephropathy model in db/db mice; assay type: in vivo; settings: for 24-h urea nitrogen after administration, compared with the model group / 24-h urine creatinine after administration, compared with the model group / 24-h urine protein after administration, compared with the model group / 24-h urine volume after administration, compared with the model group: 2 μg/kg via vena caudalis, 2 months, original protein once a week, conjugate 3 once every 2 weeks
Procedure: db/db mice (purchased from Shanghai Slaccas Experimental Animal Co., LTD., grade SPF, 8-week aged, male, with a conformity certification No. of 2007000552656) were employed as animal models for diabetic nephropathy. A model group, a kallikrein (purchased from Changzhou Qianhong Biochemical Pharmaceutical Co., LTD.) original protein group and a conjugate 3 group were provided respectively. The administered dose was 2 μg/kg (calculated according to the protein amount), through vena caudalis, where the model group and the original protein group were dosed once a week, and the conjugate 3 group was dosed once every 2 weeks, for 2 continuous months before detection of urine volume, urine protein, urea nitrogen and urine creatinine. (Urine protein detection kits, urine creatinine detection kits, and urea nitrogen detection kits were all purchased from Nanjing Jiaticheng Bioengineering Co., LTD.)

[4] = Pharmacokinetics by 125I isotope labelling tracer method; assay type: in vivo; settings: rats, 1.5 U/kg via vena caudalis; for T½β: 2-compartment model
Procedure: The in vivo blood drug concentrations of kallikrein before and after the PEG modification were studied employing a ^125I isotope labelling tracer method in this example. In order to reduce the absorption of the labelled drug by the thyroid gland of rats, 1 ml of a 1% KI (Sinopharm Group) solution was intraperitoneally injected about 8 hours before the experiment, to saturate the thyroid gland of the rats. The rats were randomly divided into 3 groups, i.e., a conjugate 3 group, a kallikrein group, and a urinary kallikrein group, 8 in each group, half male and half female (purchased from Experimental Animal Center of Zhejiang Province).
A particular operation method is as follows:
1. Hydroxy on the amino acid residue phenyl ring in a protein molecule is substituted with radioiodine, to obtain the above protein with ^125I having a radioactive tracing effect.
2. Numbering is performed on the rats using picric acid according to the numbering rule, and weighing is performed. After fixing with a rat fixer, administration is performed by injection through vena caudalis (1.5 U/kg). The rat is let go immediately after the dosage, and allowed to move around, drink water, and eat food freely.
3. 0.2 mL of blood is taken from eye sockets 1 min, 3 min, 10 min, 20 min, 40 min, 60 min, 2 h, 4 h, 8 h, 12 h, 24 h, 48 h, 72 h, 96 h, and 120 h respectively after the dosage, and EDTA is added therein for anticoagulation.
4. The rat plasma is subjected to centrifugal separation at 5000 rpm for 3 min, and determined for plasma radioactivity using a gamma counter (Anke Zhongjia, GC-911), for 1 min.
5. Plasma is recovered after radioactivity determination, and undegraded proteinogenous drugs are separated by HPLC (Shimadzu LC-20AT).

[5] = In vitro activity of PEG-KLK1 conjugates (BAEE degradation, absorbance change); assay type: biochemical; settings: BAEE substrate, versus original unmodified protein
Text: N-benzoyl-L arginine ethyl ester hydrochloride (BAEE, purchased from sigma Inc.) may be degraded by Kallikrein, and the activity of kininogenase may be determined according to the change in the absorbance before and after the enzymatic reaction, see Pharmacopoeia of People's Republic of China, pages 850-851, Section 2, 2010 version for a particular determination method. Samples to be detected were, respectively, SC-PEG5000-KLK1 (conjugate 1), Y-PALD-20K-KLK1 (conjugate 2), Y-PALD-30K-KLK1 (conjugate 3), and Y-PALD-40K-KLK1 (conjugate 4) from Preparation Example 1, and the original unmodified protein.
The recombinant expressed low-molecular weight human kallikrein (hK1K1) from Example 10 was modified with a Y-PALD-30K modifier, and after the modification, a mono-modified product (Y-PALD-30K-hK1K1) was prepared according to the method described in Example 1. […] According to the experimental method in Example 2, the activity of human kallikrein (hK1K1) before and after the modification was determined.
The recombinant human kallikrein expressed in CHO cells prepared in Example 12 was modified with a Y-PALD-30K modifier, and after the modification, a mono-modified product (Y-PALD-30K-rhK1K1) was prepared according to the method described in Example 1. […] According to the experimental method in Example 2, the activity of human kallikrein before and after the modification was determined.

[6] = test system: anti-kallikrein antibody level in serum; parameters: species or system mice; settings: mouse, in vivo, 1 mg/kg
Procedure: Relative immunogenicity of different PEG-KLK1 conjugates to mice was determined in this example, and compared with the original protein. The experiment was divided into a conjugate 2 group, a conjugate 3 group, a urinary kallikrein group and an original protein group. 1 mg/kg (calculated according to the protein amount) of the above protein was injected through vena caudalis into the mice at a frequency of twice a week, for 4 continuous weeks. Blood was taken from eye sockets 1 week after administration. The anti-kallikrein antibody level in serum was determined by […].

Row | Substance | activity after standing for 10 min at 65° C. ([1]; 1 mg/mL in PBS, 65° C., 10 min) | amelioration of cerebral infarction status of the model animals (in words) [2] | Cerebral infarction area (%) [2] [%] | Score of neurologic deficit symptom [2] | 24-h urea nitrogen after administration, compared with the model group [3] | 24-h urine creatinine after administration, compared with the model group [3] | 24-h urine protein after administration, compared with the model group [3] | 24-h urine volume after administration, compared with the model group [3] | AUC [4] [ng·h/mL] | CL [4] [mL/min/kg] | V [4] [L/kg] | T½β [4] [h] | activity retained, of the activity of the original protein [5] [%] | thermostability in comparison with the original protein [1] | antibody titers on mice compared with kallikrein from porcine pancreas and urinary kallikrein [6] | activity after standing for 20 min at 65° C. ([1]; 1 mg/mL in PBS, 65° C., 20 min) | relative immunogenicity to mice compared with conjugate 2 [6] | efficacy compared with the original protein group ([3]; conjugate 3 once every 2 weeks versus original protein once a week)
1 | Kallikrein | substantially lost | no apparent amelioration | 26.52 ± 3.67 | 2.41 ± 0.19 | significantly reduced | significantly reduced | significantly reduced | significantly reduced | 18.59 | 2.17 | 3.53 | 18.81 |  |  |  |  |  | 
2 | Positive control 1: urinary kallikrein sourced from human urine, Guangdong Tianpu Biochemical Pharmaceutical [reference compound] |  |  | 24.49 ± 3.96 | 2.47 ± 0.21 |  |  |  |  | 11.68 | 3.5 | 5.16 | 17.49 |  |  |  |  |  | 
3 | SC-PEG5000-KLK1 [Conjugate 1, reference compound] |  | only partially ameliorated; also recorded: slightly ameliorate | 27.67 ± 4.34 | 2.45 ± 0.27 |  |  |  |  |  |  |  |  | 81 | unobvious |  |  |  | 
4 | Y-PALD-20K-KLK1 [Conjugate 2] |  | apparent protective effects; also recorded: better therapeutic effect | 21.34 ± 1.70 | 2.27 ± 0.24 |  |  |  |  |  |  |  |  | 83 |  | much lower |  |  | 
5 | Y-PALD-30K-KLK1 [Conjugate 3] |  | apparent protective effects; also recorded: better therapeutic effect | 17.16 ± 4.07 | 2.10 ± 0.23 | significantly reduced | significantly reduced | significantly reduced | significantly reduced | 113.62 | 0.33 | 0.64 | 20.03 | 90 | significantly increased | much lower | still has a certain activity | slightly lower | apparently superior
6 | Y-PALD-30K-hK1K1 |  |  |  |  |  |  |  |  |  |  |  |  | 85 |  |  |  |  | 
7 | Y-PALD-30K-rhK1K1 |  |  |  |  |  |  |  |  |  |  |  |  | 88 |  |  |  |  | 
8 | Y-PALD-40K-KLK1 [Conjugate 4] |  | essentially did not reduce; also recorded: no apparent amelioration | 31.27 ± 5.08 | 2.65 ± 0.34 |  |  |  |  |  |  |  |  | 86 |  |  |  |  | 
